Test results reported in patent US5001149A, “Azadirachtin derivative insecticides” (NPI, priority 1987, dated 1991).
Values after ≈ are worked out from the molar mass of the structure shown. “Also recorded” adds a separate entry of the source. Where two headings read alike, the source gives them in different places.

How the values were obtained:
[1] = tested on: first-instar Heliothis virescens larvae; experiment: Mortality and growth inhibition in first-instar Heliothis virescens larvae fed in an artificial diet; type: in vivo; settings: for EC50 (concentration causing 50% growth inhibition): first-instar larvae, artificial diet, in parentheses 95% confidence limits; for LC50 (concentration causing 50% mortality): heliothis virescens, in vivo; for LC50 (concentration causing 50% mortality) / LC50: po; for LC50: Heliothis virescens, read-out: LC50 (concentration causing 50% mortality)
Text: Mortality and growth inhibition in first-instar Heliothis
virescens larvae fed azadirachtin and eight derivatives in an
^b LC50 values are the concentrations (ppm) causing 50%
^c EC50 values are the concentrations (PPM) causing 50% growth
^d Numbers in parentheses are the 95% confidence limits determined
using the methods of Litchfield and Wilcoxon, J. Pharmacol. Exp. Ther.

insects [2] = experiment: Antifeedant function; settings: in vivo
[3] = tested on: fifth-instar Heliothis virescens larvae; experiment: Relative activity of UV-irradiated compounds in inhibiting adult development; type: in vivo; settings: for Relative activity, inhibiting adult development: relative to non-irradiated
Experimental: (§1) Azadirachtin and its derivatives listed above (1.0 mg/ml absolute ethanol) were placed individually in capped quartz NMR tubes (5×180 mm) and were irradiated with two UV germicidal lights (GE, G30T8, 200-280 nm, 30 W) 1.8 m from the source at room temperature for up to 400 h. The controls were identical samples protected from exposure to UV radiation by wrapping with aluminum foil. At selected time intervals, aliquots from both the controls (non-irradiated) and irradiated samples were removed for high-performance liquid chromatography (HPLC) analysis (vide infra) and bioassay.
(§2) Individual larvae were injected per os on the first day of the fifth instar with 1.0 μg of one of the either irradiated or non-irradiated compounds dissolved in 1.0 μl of 75% aqueous ethanol.
(§3) Relative activity of azadirachtin, 3deacetylazadirachtin,
22,23dihydroazadirachtin, 2',3',22,23tetrahydroazadirachtin, all of which
had been exposed for 15, 30, 90, 200, and 400 hours to UV radiation, in
inhibiting the adult development of fifthinstar Heliothis virescens
(§4) larvae. Relative activity is defined as the percentage of larvae injected
relative to the percentage injected with its nonirradiated counterpart

[4] = tested on: fifth-instar Heliothis virescens larvae; experiment: Pupal and adult development of fifth-instar larvae injected orally with non-irradiated compounds; type: in vivo; settings: for mortality at 0.001 mg: Heliothis virescens, light or radiation study, po, read-out: % Mortality Prior to Adult Stage
Experimental: as §2
Successful and unsuccessful pupal and adult development of fifthinstar
Heliothis Virescens larvae injected orally with 1.0 microgram of either
azadirachtin, 3deacetylazadirachtin, 22,23dihydroazadirachtin, or
2',3',22,23tetrahydroazadirachtin.

[5] = tested on: fifth-instar Heliothis virescens larvae; experiment: Relative activity of UV-irradiated compounds in inhibiting pupal development (pupation); type: in vivo; settings: for Relative activity, inhibiting pupal development: relative to non-irradiated
Experimental: as §1, §2, §3
22,23dihydroazadirachtin, and 2',3',22,23tetrahydroazadirachtin, all of
which had been exposed for 15, 30, 90, 200, and 400 hours to UV radiation
inhibiting the pupal development of fifthinstar Heliothis virescens
as §4

insects [6] = settings: Kubo & Klocke and other literature; cited from earlier work
[7] = Stability to UV irradiation by reversed phase HPLC; type: physicochemical; settings: for half-life / degraded at 90 h: absolute ethanol
Experimental: Stability of Azadirachtin derivatives was determined as follows:
as §1
Analytical reversed phase HPLC was performed on a phenyl (5 μm) column run isocratically with acetonitrile-water (3:7) (Yamasaki et al.) Peaks were detected at 214 nm. The irradiated samples were compared with their corresponding non-UV-irradiated controls by measuring the height of the peak eluting at the appropriate Rt for each irradiated compound relative to each one's non-irradiated control. Results are expressed as the percent of the initial sample concentration remaining relative to the control. Each time point was done in at least triplicate fashion.

[8] = 1.0 microgram per os, fifth instar, non-irradiated
[9] = 1.0 microgram per os, non-irradiated

Molecule | EC50 (concentration causing 50% growth inhibition) [1] | LC50 (concentration causing 50% mortality) [1] | Relative activity, inhibiting adult development ([3]; 15 h UV) | Relative activity, inhibiting adult development ([3]; 30 h UV) | Relative activity, inhibiting adult development ([3]; 90 h UV) | ability to inhibit larvae from reaching the adult stage, in words ([3]; 200 h UV) | Relative activity, inhibiting adult development ([3]; 200 h UV) | Relative activity, inhibiting adult development ([3]; 400 h UV) | Number Unsuccessful Larvae-Pupae [4, 8] | Number Unsuccessful Pupae-Adult [4, 8] | inhibition of pupation, in words [4, 9] | mortality at 0.001 mg [4] | Relative activity, inhibiting pupal development ([5]; 15 h UV) | Relative activity, inhibiting pupal development ([5]; 30 h UV) | activity retained, in words ([5]; 90 h UV) | Relative activity, inhibiting pupal development ([5]; 90 h UV) | ability to inhibit pupation, in words ([5]; 200 h UV) | Relative activity, inhibiting pupal development ([5]; 200 h UV) | ability to inhibit pupation, in words ([5]; 400 h UV) | activity retained ([5]; 400 h UV) | other results
13,20-O, O-dicarbomethoxy-22,23-dihydroazadirachtin [Compound 6] | 29.0 (20.3-41.5) ppm | 90.0 (37.8-214.5) ppm |  |  |  |  |  |  |  |  |  |  |  |  |  |  |  |  |  |  | 
13-O-methylazadirachtin [Compound 5] | 5.00 (1.54-16.25) ppm | 25.0 (12.2-51.4) ppm |  |  |  |  |  |  |  |  |  |  |  |  |  |  |  |  |  |  | 
13O-acetylazadirachtin [Compound 4] | 0.18 (0.08-0.40) ppm | 0.95 (0.59-1.54) ppm |  |  |  |  |  |  |  |  |  |  |  |  |  |  |  |  |  |  | 
C/C=C(\C)C(=O)O[C@H]1C[C@@H](OC(C)=O)[C@@]2(C(=O)OC)CO[C@H]3[C@@H](O)[C@@](C)([C@]45O[C@@]4(C)[C@H]4C[C@@H]5O[C@@H]5OC=C[C@@]54O)[C@H]4[C@]1(CO[C@]4(O)C(=O)OC)[C@@H]32 [Compound 1, azadirachtin] | 0.07 (0.05-0.10) ppm |  | 101.3% | 101.3% | 97.3% | declined slightly | 89.7% | 81.1% | 5 | 0 | equally effective in inhibiting pupation | 98.7% | 98.6% | 98.9% | retained full activity | 85.7% | did decline | 74.2% | An even greater decline | approximately 50% | antifeedant function, in words (insects [2]): function as antifeedants; Adults Deformed, % [4, 8]: 0.7%; Adults, % [4, 8]: 1.3%; Number Adults [4, 8]: 2; Number Adults Deformed [4, 8]: 1; Number Pupae [4, 8]: 10; Pupae, % [4, 8]: 6.7%; Unsuccessful Larvae-Pupae, % [4, 8]: 3.4%; Unsuccessful Pupae-Adult, % [4, 8]: 0%; Relative activity, inhibiting pupal development ([5]; 400 h UV): 60.0%; ability to inhibit pupation, in words ([5]; up to 90 h UV): not appreciably reduced; LC50 [1]: 0.8 µg/mL (≈ 1.11 µM); ecdysis inhibitory activity, in words (insects [6]): potent ecdysis inhibitory activity; also recorded: the same ecdysis inhibitory activity; degradation, in words ([7]; 400 h UV): none of the three compounds remained in their original state; half-life ([7]; UV 200-280 nm, room temperature, read-out: T1/2 of UV degradation (converted)): 25 h; UV stability, in words ([7]; UV exposure up to 400 h): UV-labile; reaction order of UV degradation, in words ([7]; UV irradiation): degraded in a first-order reaction; degraded at 90 h ([7]; 90 h UV, read-out: compound degraded): > 80%
C/C=C(\C)C(=O)OC1CC(O)C2(C(=O)OC)COC3C2C12COC(O)(C(=O)OC)C2C(C)(C12OC1(C)C1CC2OC2OC=CC21O)C3O (centres unmarked) [Compound 2, 3-deacetylazadirachtin] |  |  | 103.2% | 106.3% | 106.3% | remained substantially unchanged until 400 h of irradiation | 96.0% | 72.3% | 13 | 4 | less effective | 94.1% | 115.2% | 135.0% | retained full activity | 139.5% | did decline | 86.8% | An even greater decline | approximately 50% | Relative activity, inhibiting pupal development ([5]; 400 h UV): 41.0%; ability to inhibit pupation, in words ([5]; up to 90 h UV): not appreciably reduced; LC50 [1]: 0.37 µg/mL (≈ 0.545 µM); degradation, in words [7]: none of the three compounds remained in their original state; reaction order of UV degradation, in words [7]: degraded in a first-order reaction; degraded at 90 h ([7]; uv): > 80%; half-life ([7]; uv): 25 h
